# Molecular target: T1, IRE1α (Homo sapiens, UniProt O75460)
# T1 construct: gene ERN1; His-tagged cytoplasmic region of IRE1α (IRE1-C), expressed in SF9 insect cells
# Experiment: in vitro XBP1 mRNA cleavage assay with purified IRE1-C, urea-PAGE, SYBR Gold stain
# Format: biochemical
# T1 sequence (O75460 465-977 limits assumed): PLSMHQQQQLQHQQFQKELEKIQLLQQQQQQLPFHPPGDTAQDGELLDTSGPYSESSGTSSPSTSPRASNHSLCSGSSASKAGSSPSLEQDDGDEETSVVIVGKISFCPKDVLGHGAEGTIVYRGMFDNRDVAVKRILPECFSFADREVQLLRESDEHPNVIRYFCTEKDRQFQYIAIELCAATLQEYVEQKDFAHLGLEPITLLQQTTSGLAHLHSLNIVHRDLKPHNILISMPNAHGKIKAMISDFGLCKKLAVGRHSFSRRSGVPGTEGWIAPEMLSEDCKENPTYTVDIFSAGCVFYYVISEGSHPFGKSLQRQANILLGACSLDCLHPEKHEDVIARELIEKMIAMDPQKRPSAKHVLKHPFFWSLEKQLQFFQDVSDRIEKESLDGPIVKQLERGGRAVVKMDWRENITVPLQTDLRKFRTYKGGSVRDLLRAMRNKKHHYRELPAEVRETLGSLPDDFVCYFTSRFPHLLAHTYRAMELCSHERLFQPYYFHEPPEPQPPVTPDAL
row,IC50 [µM],SMILES
1,30.8,Oc1ccc(/C=C/c2ccc(/C=C/c3ccc(O)cc3)c(Br)c2)cc1 [K114]
2,0.0741,Cc1cc(=O)oc2c(C=O)c(O)ccc12 [4μ8C]

# From publication PMC10749220, “Development of a Rapid in vivo Assay to Evaluate the Efficacy of IRE1-specific Inhibitors of the Unfolded Protein Response Using Medaka Fish” (Cell Structure and Function, 2019)
